Measurements as given in patent US20220168312A1, “MULTICOMPONENT CRYSTAL FORMULATIONS” (UNIVERSITY OF LIMERICK, priority 2019, published 2022).

How the values were obtained:
[1] = format: physicochemical; conditions: intrinsic dissolution of compacts, 37° C., relative to pure LAM
Procedure: These compacts were each coated with paraffin wax, leaving one surface exposed and secured to the bottom of the dissolution apparatus with excess paraffin wax. Intrinsic solubility was determined using a 900 ml well filled with 900 ml of degassed, deionised water (or 0.1 M HCl solution) on a Pharma Test USP type II system. The solution had been previously equilibrated at 37° C. and the paddle speed was set to 100 rpm after adding the samples. Aliquots of media were withdrawn at 5, 10, 15, 20 30 and 60 minutes (or 0.25, 0.5, 1, 3, 6, 12 and 24 hours), filtered through 0.45 μm PTFE filters and tested via a UV spectrometer in triplicate.
UV-Vis absorbance measurements were carried on a Cary 60 UV-Vis spectrometer using 1 ml quartz cuvettes.

[2] = Tensile stress test of tablets; format: physicochemical
Procedure: Hardness testing was performed immediately after tableting using a Pharma Test hardness tester. Each compaction force was tested in triplicate. Tensile strength was calculated according to the Equation 1 where F is the load required to fracture the tablet, D the table diameter and H the tablet height: Tensile strength=2F/πDH Equation 1: […]

[3] = format: physicochemical
Procedure: Stability testing: Accelerated stability testing was conducted by taking 100 mg of powdered sample and placing it into a humidity chamber under 75% relative humidity at 40° C. for 14 days. The samples were analysed before and after testing by PXRD, FT-IR, DSC and TGA.

Thermal analysis (TGA) = format: physicochemical; conditions: 10° C./min, nitrogen
Procedure: Thermal Analysis: Thermogravimetric analysis (TGA) was performed using a TA Instruments TGA-Q50 on at a constant rate of 10° C./min from 25° C. to 350° C. under a flux of nitrogen of 50 ml/min. Differential Scanning Calorimetry (DSC) was carried out using sealed aluminium pans on a TA instruments DSC-Q2000 differential scanning calorimeter. Temperature calibrations were made using indium as the standard. An empty pan, sealed in the same way as the sample, was used as a reference. All the thermograms were run at a heating/cooling rate of 10° C./min under a nitrogen purge at a rate of 50 ml/min.

[4] = format: physicochemical; remark: listed apart in the source
Procedure: The product was recovered by filtration and dried in air.
Powder X-ray diffraction (PXRD): X-ray powder diffraction (XRPD) patterns were collected in Bragg-Brentano geometry on a PANalytical Empyrean diffractometer equipped with a sealed tube (Cu Kα12, λ=1.5418 Å) an 1D X'Celerator detector between 4 and 40° 2θ.

[5] = cited from earlier work

In the case of “lamotrigine:valproic acid (1:2) ionic cocrystal [LAMVAL]”, the “intrinsic dissolution, faster than pure LAM” value [1] is reported as 2 ×, the “tensile strength compared with LAM” value ([2]; across a range of compaction forces) is reported as “significantly greater tensile strength” and the “crystallinity after accelerated stability test (PXRD)” value [3] is reported as “remains crystalline”. The “product degradation after accelerated stability test (FT-IR and DSC)” value [3] was “no sign of product degradation”, the “thermally stable up to (thermogravimetric analysis)” value (Thermal analysis (TGA)) was “around 100 °C” and the “stability as a slurry in water (PXRD)” value [4] was “stable as a slurry in water”.

In the case of `Nc1nnc(-c2cccc(Cl)c2Cl)c(N)n1` [LAM, lamotrigine], the “tablet hardness / tensile strength” value ([2]; tablets obtained with a compaction weight lower than 400 kg) is given as “too brittle to enable hardness testing”, the half-life ([5]; in vivo) is given as “rather short half-life” and the oral bioavailability ([5]; orally) is given as 90%.
